Assay results from article PMC7914897, “Cytotoxic Potential of a-Azepano- and 3-Amino-3,4-SeCo-Triterpenoids” (International Journal of Molecular Sciences, 2021).
Where two headings read alike, the source gives them in different places.

Experiments:
LOX IMVI (Melanoma) = test: NCI-60 screen (SRB, 48 h); assay type: cell-based; conditions: Homo sapiens
BT-549 (Breast cancer) = test: NCI-60 screen (SRB, 48 h); assay type: cell-based; conditions: Homo sapiens
Leukemia subpanel = test: cells; conditions: Homo sapiens
OVCAR-3 (Ovarian cancer) = test: cells; conditions: Homo sapiens
Colon Cancer subpanel = test: NCI-60 screen, subpanel; conditions: Homo sapiens
Melanoma subpanel = test: NCI-60 screen, subpanel; conditions: Homo sapiens
Prostate cancer subpanel = test: NCI-60 screen, subpanel; conditions: Homo sapiens
Breast cancer subpanel = test: NCI-60 screen, subpanel; conditions: Homo sapiens
CCRF-CEM (Leukemia) = test: NCI-60 screen (SRB, 48 h); conditions: Homo sapiens
K-562 (Leukemia) = test: NCI-60 screen (SRB, 48 h); conditions: Homo sapiens
RPMI-8226 (Leukemia) = test: NCI-60 screen (SRB, 48 h); conditions: Homo sapiens
[1] = tested on: A549/ATCC (NSC lung cancer); test: NCI-60 screen (SRB, 48 h); conditions: Homo sapiens
[2] = tested on: NCI-H23 (NSC lung cancer); test: NCI-60 screen (SRB, 48 h); conditions: Homo sapiens
[3] = tested on: NCI-H322M (NSC lung cancer); test: NCI-60 screen (SRB, 48 h); conditions: Homo sapiens
HCT-15 (Colon cancer) = test: NCI-60 screen (SRB, 48 h); conditions: Homo sapiens
HT29 (Colon cancer) = test: NCI-60 screen (SRB, 48 h); conditions: Homo sapiens
U251 (CNS cancer) = test: NCI-60 screen (SRB, 48 h)
SK-MEL-2 (Melanoma) = test: NCI-60 screen (SRB, 48 h); conditions: Homo sapiens
SK-MEL-28 (Melanoma) = test: NCI-60 screen (SRB, 48 h); conditions: Homo sapiens
UACC-257 (Melanoma) = test: NCI-60 screen (SRB, 48 h); conditions: Homo sapiens
IGROV1 (Ovarian cancer) = test: NCI-60 screen (SRB, 48 h); conditions: Homo sapiens
[4] = tested on: NCI/ADR-RES (Ovarian cancer); test: NCI-60 screen (SRB, 48 h); conditions: Homo sapiens
SN12C (Renal cancer) = test: NCI-60 screen (SRB, 48 h); conditions: Homo sapiens
UO-31 (Renal cancer) = test: NCI-60 screen (SRB, 48 h); conditions: Homo sapiens
DU-145 (Prostate cancer) = test: NCI-60 screen (SRB, 48 h); conditions: Homo sapiens
[5] = tested on: MDA-MB-31/ATCC (Breast cancer); test: NCI-60 screen (SRB, 48 h); conditions: Homo sapiens
HS 578T (Breast cancer) = test: NCI-60 screen (SRB, 48 h); conditions: Homo sapiens
[6] = tested on: panel of approximately 60 cancer cell lines; test: NCI-60 screen (SRB, 48 h), full panel

SMILES: Cc1ccc(S(=O)(=O)OC[C@@]2(C)CC[C@]3(C)CC[C@]4(C)C(=C3C2)C=C[C@@H]2[C@@]3(C)CCCNC(C)(C)[C@@H]3CC[C@]24C)cc1 [Compound 16]
- IC (TGI) (LOX IMVI (Melanoma); 48 h): 3.02 µM
- activity at 10 µM (LOX IMVI (Melanoma); 48 h, 1 dose 10 µM, read-out: Growth % of the Most Sensitive Cell Lines): -99.2%
- GI50 (LOX IMVI (Melanoma); read-out: GI50): 1.63 µM
- GI50 (BT-549 (Breast cancer); BT-549): 1.48 µM
- IC (TGI) (BT-549 (Breast cancer); BT-549, 48 h): 3.14 µM
- IC (TGI) (Leukemia subpanel; 48 h, read-out: TGI MG_MID): 4.72 µM
- GI50 (Leukemia subpanel; read-out: GI50 MG_MID): 1.61 µM
- CC50 (Leukemia subpanel; read-out: LC50 MG_MID): > 100 µM
- GI50 (OVCAR-3 (Ovarian cancer); OVCAR-3): 1.88 µM
- IC (TGI) (OVCAR-3 (Ovarian cancer); OVCAR-3, 48 h, read-out: TGI): 3.56 µM
- IC (TGI) (Colon Cancer subpanel; 48 h, read-out: TGI MG_MID): 3.3 µM
- GI50 (Colon Cancer subpanel; read-out: GI50 MG_MID): 1.64 µM
- CC50 (Colon Cancer subpanel; read-out: LC50 MG_MID): 6.94 µM
- IC (TGI) (Melanoma subpanel; 48 h, read-out: TGI MG_MID): 3.36 µM
- GI50 (Melanoma subpanel; read-out: GI50 MG_MID): 1.77 µM
- CC50 (Melanoma subpanel; read-out: LC50 MG_MID): 6.16 µM
- IC (TGI) (Prostate cancer subpanel; 48 h, read-out: TGI MG_MID): 3.19 µM
- GI50 (Prostate cancer subpanel; read-out: GI50 MG_MID): 1.67 µM
- CC50 (Prostate cancer subpanel; read-out: LC50 MG_MID): 6.1 µM
- IC (TGI) (Breast cancer subpanel; 48 h, read-out: TGI MG_MID): 3.5 µM
- GI50 (Breast cancer subpanel; read-out: GI50 MG_MID): 1.67 µM
- CC50 (Breast cancer subpanel; read-out: LC50 MG_MID): 7.57 µM
- GI50 (CCRF-CEM (Leukemia)): 2.14 µM
- IC (TGI) (CCRF-CEM (Leukemia); 48 h, read-out: TGI): 6.06 µM
- CC50 (CCRF-CEM (Leukemia); read-out: LC50): > 100 µM
- GI50 (K-562 (Leukemia); K562): 1.28 µM
- CC50 (K-562 (Leukemia); K562, read-out: LC50): > 100 µM
- GI50 (RPMI-8226 (Leukemia); RPMI-8226): 2.12 µM
- IC (TGI) (RPMI-8226 (Leukemia); RPMI-8226, 48 h, read-out: TGI): 4.63 µM
- CC50 (RPMI-8226 (Leukemia); RPMI-8226, read-out: LC50): > 100 µM
- GI50 ([1]; A549): 1.86 µM
- IC (TGI) ([1]; A549, 48 h, read-out: TGI): 3.62 µM
- GI50 ([2]; NCI-H23): 1.82 µM
- IC (TGI) ([2]; NCI-H23, 48 h, read-out: TGI): 3.42 µM
- CC50 ([2]; NCI-H23, read-out: LC50): 6.41 µM
- GI50 [3]: 1.62 µM
- IC (TGI) ([3]; 48 h, read-out: TGI): 3.01 µM
- CC50 ([3]; read-out: LC50): 5.62 µM
- GI50 (HCT-15 (Colon cancer); HCT-15): 1.61 µM
- IC (TGI) (HCT-15 (Colon cancer); HCT-15, 48 h, read-out: TGI): 3.17 µM
- GI50 (HT29 (Colon cancer); HT-29): 1.48 µM
- IC (TGI) (HT29 (Colon cancer); HT-29, 48 h, read-out: TGI): 3.08 µM
- GI50 (U251 (CNS cancer); Homo sapiens, U-251): 1.66 µM
- IC (TGI) (U251 (CNS cancer); Homo sapiens, U-251, 48 h, read-out: TGI): 3.17 µM
- CC50 (U251 (CNS cancer); Homo sapiens, U-251, read-out: LC50): 6.07 µM
- Growth % of the Most Sensitive Cell Lines (U251 (CNS cancer); U251, 1 dose 10 µM): −95.86%
- GI50 (SK-MEL-2 (Melanoma); SK-MEL-2): 1.88 µM
- IC (TGI) (SK-MEL-2 (Melanoma); SK-MEL-2, 48 h, read-out: TGI): 3.52 µM
- CC50 (SK-MEL-2 (Melanoma); SK-MEL-2, read-out: LC50): 6.58 µM
- GI50 (SK-MEL-28 (Melanoma); SK-MEL-28): 1.77 µM
- IC (TGI) (SK-MEL-28 (Melanoma); SK-MEL-28, 48 h, read-out: TGI): 3.26 µM
- CC50 (SK-MEL-28 (Melanoma); SK-MEL-28, read-out: LC50): 5.97 µM
- GI50 (UACC-257 (Melanoma); UACC-257): 1.85 µM
- IC (TGI) (UACC-257 (Melanoma); UACC-257, 48 h, read-out: TGI): 3.68 µM
- GI50 (IGROV1 (Ovarian cancer); IGROV-1): 1.79 µM
- IC (TGI) (IGROV1 (Ovarian cancer); IGROV-1, 48 h, read-out: TGI): 3.43 µM
- GI50 [4]: 2.05 µM
- IC (TGI) ([4]; 48 h, read-out: TGI): 4.59 µM
- CC50 ([4]; read-out: LC50): > 100 µM
- GI50 (SN12C (Renal cancer)): 1.79 µM
- IC (TGI) (SN12C (Renal cancer); 48 h, read-out: TGI): 3.41 µM
- GI50 (UO-31 (Renal cancer); UO-31): 1.46 µM
- IC (TGI) (UO-31 (Renal cancer); UO-31, 48 h, read-out: TGI): 2.85 µM
- CC50 (UO-31 (Renal cancer); UO-31, read-out: LC50): 5.59 µM
- GI50 (DU-145 (Prostate cancer); DU-145): 1.81 µM
- IC (TGI) (DU-145 (Prostate cancer); DU-145, 48 h, read-out: TGI): 3.4 µM
- CC50 (DU-145 (Prostate cancer); DU-145, read-out: LC50): 6.39 µM
- GI50 [5]: 1.98 µM
- IC (TGI) ([5]; 48 h, read-out: TGI): 3.91 µM
- GI50 (HS 578T (Breast cancer)): 1.94 µM
- IC (TGI) (HS 578T (Breast cancer); 48 h, read-out: TGI): 4.26 µM
- CC50 (HS 578T (Breast cancer); read-out: LC50): 9.37 µM
- Positive Cytostatic Effect (cell lines with percent growth 0 to 50 / total) ([6]; 1 dose 10 µM): 12/60
- Positive Cytotoxic Effect (cell lines with percent growth < 0 / total) ([6]; 1 dose 10 µM): 31/60
- number of cancer cell lines the compound was active against ([6]; 1 dose 10 µM): 40 cell lines
- activity at 10 µM ([6]; Homo sapiens, 48 h, read-out: Mean Growth, %): -0.81%
- activity at 10 µM ([6]; Homo sapiens, 48 h, read-out: Range of Growth, %): -99.2 to 104%
- IC (TGI) ([6]; Homo sapiens, 48 h, read-out: TGI MG_MID60, average over all cell lines): 3.52 µM
- GI50 ([6]; Homo sapiens, read-out: GI50 MG_MID60): 1.72 µM
- GI50 ([6]; Homo sapiens, read-out: GI50 against all human tumor cell lines): < 3 µM
- GI50 ([6]; Homo sapiens, read-out: GI50 against the most sensitive cell lines): 0.2 to 0.94 µM
